Test results from article PMC9476189 (ACS Omega, 2022).
Entries after “also recorded” stand apart in the source; their conditions may differ.

Columns and labels:
α-glucosidase = α-glucosidase (Saccharomyces cerevisiae, UniProt P53341); test: α-Glucosidase assay; assay type: biochemical; conditions: for α-glucosidase inhibition, inhibition (%) at 0.5 mM / IC50: mean ± SEM, triplicate; for IC50: read-out: α-glucosidase inhibition, IC50
LOX = biological target: T1, LOX (Glycine max, UniProt P08170); test: Lipoxygenase assay; assay type: biochemical; conditions: mean ± SEM, triplicate
T1 sequence (P08170 1-839): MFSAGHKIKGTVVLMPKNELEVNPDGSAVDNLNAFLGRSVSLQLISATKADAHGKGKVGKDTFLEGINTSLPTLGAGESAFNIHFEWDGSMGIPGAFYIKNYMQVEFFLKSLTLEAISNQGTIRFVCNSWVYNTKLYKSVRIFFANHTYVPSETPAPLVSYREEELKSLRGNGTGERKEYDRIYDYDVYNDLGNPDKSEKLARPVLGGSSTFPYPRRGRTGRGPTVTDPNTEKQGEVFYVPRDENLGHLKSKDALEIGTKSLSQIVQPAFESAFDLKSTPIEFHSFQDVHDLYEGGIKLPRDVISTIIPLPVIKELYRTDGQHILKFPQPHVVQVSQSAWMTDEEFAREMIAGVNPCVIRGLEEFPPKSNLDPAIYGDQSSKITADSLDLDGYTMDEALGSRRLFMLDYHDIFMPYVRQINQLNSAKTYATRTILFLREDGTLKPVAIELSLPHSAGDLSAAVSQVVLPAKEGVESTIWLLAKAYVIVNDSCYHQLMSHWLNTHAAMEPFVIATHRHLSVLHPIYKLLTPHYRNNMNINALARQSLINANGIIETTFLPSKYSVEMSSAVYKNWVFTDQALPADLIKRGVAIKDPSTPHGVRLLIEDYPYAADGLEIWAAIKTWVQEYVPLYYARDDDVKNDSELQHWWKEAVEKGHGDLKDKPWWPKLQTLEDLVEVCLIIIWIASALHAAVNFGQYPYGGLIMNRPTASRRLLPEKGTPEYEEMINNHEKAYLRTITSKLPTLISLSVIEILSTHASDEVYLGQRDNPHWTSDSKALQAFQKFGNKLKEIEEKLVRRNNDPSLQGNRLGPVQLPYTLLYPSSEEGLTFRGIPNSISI

AChE = AChE (Homo sapiens, UniProt P22303); conditions: for AChE inhibition, inhibition (%) at 0.5 mM / IC50: mean ± SEM, triplicate; for IC50: read-out: AChE inhibition, IC50
urease = urease (Canavalia ensiformis, UniProt P07374); conditions: mean ± SEM, triplicate; for IC50: read-out: urease inhibition, IC50
BChE = BChE (Homo sapiens, UniProt P06276); conditions: mean ± SEM, triplicate
BChE, sequence (P06276 29-602, species assumed): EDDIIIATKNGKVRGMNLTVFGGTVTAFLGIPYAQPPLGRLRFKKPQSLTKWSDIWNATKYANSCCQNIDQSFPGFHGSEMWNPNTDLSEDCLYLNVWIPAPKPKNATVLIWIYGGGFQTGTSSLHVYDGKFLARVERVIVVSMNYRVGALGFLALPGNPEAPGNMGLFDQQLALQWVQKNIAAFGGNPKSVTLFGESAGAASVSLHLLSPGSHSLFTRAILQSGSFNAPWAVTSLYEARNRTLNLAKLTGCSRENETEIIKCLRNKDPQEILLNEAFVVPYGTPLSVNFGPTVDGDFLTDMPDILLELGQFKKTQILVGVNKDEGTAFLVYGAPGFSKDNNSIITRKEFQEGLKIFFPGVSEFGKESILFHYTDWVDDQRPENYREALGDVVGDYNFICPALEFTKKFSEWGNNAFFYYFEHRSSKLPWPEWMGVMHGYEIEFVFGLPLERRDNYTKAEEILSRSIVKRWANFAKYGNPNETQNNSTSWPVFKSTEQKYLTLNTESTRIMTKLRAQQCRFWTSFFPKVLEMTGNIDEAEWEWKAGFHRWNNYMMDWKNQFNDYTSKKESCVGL

urease, sequence (P07374 whole entry, looked up): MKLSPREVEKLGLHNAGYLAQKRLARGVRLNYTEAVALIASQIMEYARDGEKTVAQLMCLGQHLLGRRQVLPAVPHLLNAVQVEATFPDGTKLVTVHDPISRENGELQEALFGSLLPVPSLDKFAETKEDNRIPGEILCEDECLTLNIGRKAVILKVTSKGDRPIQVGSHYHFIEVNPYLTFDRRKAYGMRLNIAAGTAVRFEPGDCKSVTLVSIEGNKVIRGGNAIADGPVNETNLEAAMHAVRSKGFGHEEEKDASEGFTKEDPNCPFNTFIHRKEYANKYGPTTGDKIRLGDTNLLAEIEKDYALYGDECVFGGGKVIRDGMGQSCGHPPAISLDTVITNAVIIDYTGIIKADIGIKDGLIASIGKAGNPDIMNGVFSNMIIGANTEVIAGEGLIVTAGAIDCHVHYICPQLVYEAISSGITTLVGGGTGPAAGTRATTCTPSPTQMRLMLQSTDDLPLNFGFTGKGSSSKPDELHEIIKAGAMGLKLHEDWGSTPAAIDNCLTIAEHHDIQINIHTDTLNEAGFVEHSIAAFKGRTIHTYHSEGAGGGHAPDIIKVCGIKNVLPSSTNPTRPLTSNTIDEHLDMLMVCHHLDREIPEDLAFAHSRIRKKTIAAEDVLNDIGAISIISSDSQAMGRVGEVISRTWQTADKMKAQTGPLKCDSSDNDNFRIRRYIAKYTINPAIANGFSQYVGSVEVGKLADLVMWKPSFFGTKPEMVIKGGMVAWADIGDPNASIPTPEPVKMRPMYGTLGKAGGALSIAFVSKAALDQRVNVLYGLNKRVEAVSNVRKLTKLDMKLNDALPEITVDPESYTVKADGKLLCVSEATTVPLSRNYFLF
α-glucosidase, sequence (P53341 whole entry): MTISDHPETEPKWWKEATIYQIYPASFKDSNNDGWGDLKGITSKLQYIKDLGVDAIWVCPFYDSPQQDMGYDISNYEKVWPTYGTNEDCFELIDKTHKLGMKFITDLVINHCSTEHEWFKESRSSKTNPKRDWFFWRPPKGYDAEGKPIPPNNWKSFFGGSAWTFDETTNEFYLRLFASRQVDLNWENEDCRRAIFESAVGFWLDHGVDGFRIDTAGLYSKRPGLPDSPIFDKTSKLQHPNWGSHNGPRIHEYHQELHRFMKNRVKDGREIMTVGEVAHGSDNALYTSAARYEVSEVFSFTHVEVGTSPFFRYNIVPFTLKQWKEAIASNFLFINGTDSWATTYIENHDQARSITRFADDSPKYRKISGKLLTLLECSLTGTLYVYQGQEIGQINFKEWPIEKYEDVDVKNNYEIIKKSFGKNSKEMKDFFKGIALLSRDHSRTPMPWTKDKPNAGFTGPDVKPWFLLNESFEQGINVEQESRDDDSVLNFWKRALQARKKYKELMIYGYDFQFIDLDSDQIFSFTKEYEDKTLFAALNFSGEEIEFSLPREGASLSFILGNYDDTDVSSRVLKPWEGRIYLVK
AChE, sequence (P22303 32-614): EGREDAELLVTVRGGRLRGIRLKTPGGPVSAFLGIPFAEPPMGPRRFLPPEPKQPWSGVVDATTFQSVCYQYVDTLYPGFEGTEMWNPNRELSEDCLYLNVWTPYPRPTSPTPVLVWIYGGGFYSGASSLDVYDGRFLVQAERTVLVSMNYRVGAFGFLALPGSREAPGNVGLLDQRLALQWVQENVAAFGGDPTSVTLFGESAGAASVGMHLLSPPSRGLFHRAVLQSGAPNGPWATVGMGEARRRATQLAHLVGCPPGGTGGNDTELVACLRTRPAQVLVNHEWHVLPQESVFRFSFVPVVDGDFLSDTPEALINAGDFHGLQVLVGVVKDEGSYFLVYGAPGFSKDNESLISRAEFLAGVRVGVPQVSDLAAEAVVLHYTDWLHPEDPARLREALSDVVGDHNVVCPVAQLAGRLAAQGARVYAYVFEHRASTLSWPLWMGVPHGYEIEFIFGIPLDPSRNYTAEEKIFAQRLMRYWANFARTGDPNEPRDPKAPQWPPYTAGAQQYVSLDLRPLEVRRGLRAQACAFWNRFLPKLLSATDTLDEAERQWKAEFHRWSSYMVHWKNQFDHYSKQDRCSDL

Row | SMILES | α-glucosidase inhibition, inhibition (%) at 0.5 mM (α-glucosidase) [%] | IC50 (α-glucosidase) [µM] | LOX inhibition, inhibition (%) at 0.25 mM (LOX) [%] | AChE inhibition, inhibition (%) at 0.5 mM (AChE) [%] | IC50 (AChE) [µM] | urease inhibition, inhibition (%) at 0.25 mM (urease) [%] | BChE inhibition, inhibition (%) at 0.5 mM (BChE) [%] | activity against AChE enzyme (in words) (AChE) | IC50 (urease) [µM] | IC50 (BChE; read-out: BChE inhibition, IC50) [µM] | activity against α-glucosidase enzyme (in words) (α-glucosidase) | IC50 (LOX; read-out: LOX inhibition, IC50) [µM]
1 | Cc1ccc(S(=O)(=O)N2CCC(c3nnc(SCC(=O)Nc4c(C)cccc4C)n3C)CC2)cc1 [Compound 12l, 1-(4-toluenesulfonyl)-4-{3-[N-(2,6-dimethylphenyl)-2-ethanamoylthio]-4-methyl-4H-1,2,4-triazol-5-yl} piperidine] | 53.67 ± 1.67 | 463.3 ± 1.36 | 45.29 ± 0.56 | 62.25 ± 0.86 | 287.7 ± 0.63 | 46.19 ± 1.76 | 41.87 ± 0.63 | – | – | – | – | –
2 | Cc1ccc(S(=O)(=O)N2CCC(c3nnc(SCC(=O)Nc4cc(C)cc(C)c4)n3C)CC2)cc1 [Compound 12m, 1-(4-toluenesulfonyl)-4-{3-[N-(3,5-dimethylphenyl)-2-ethanamoylthio]-4-methyl-4H-1,2,4-triazol-5-yl} piperidine] | 87.21 ± 1.46 | 142.7 ± 1.23 | 37.45 ± 0.37 | 92.73 ± 0.87 | 0.42 ± 0.67 | 98.65 ± 1.67 | 91.25 ± 0.45 | excellent activity | 14.3 ± 1.27 | 0.038 | – | –
3 | CCc1cccc(C)c1NC(=O)CSc1nnc(C2CCN(S(=O)(=O)c3ccc(C)cc3)CC2)n1C [Compound 12n, 1-(4-toluenesulfonyl)-4-{3-[N-(2-ethyl-6-methylphenyl)-2-ethanamoylthio]-4-methyl-4H-1,2,4-triazol-5-yl} piperidine] | 92.65 ± 1.64 | 29.4 ± 1.32 | 35.65 ± 0.49 | 61.53 ± 0.65 | 328.1 ± 0.45 | 32.85 ± 1.39 | 36.24 ± 0.59 | – | – | – | excellent activity; also recorded: most active compound | –
4 | Cc1ccc(S(=O)(=O)N2CCC(c3nnc(SCC(=O)Nc4c(C)cccc4[N+](=O)[O-])n3C)CC2)cc1 [Compound 12o, 1-(4-toluenesulfonyl)-4-{3-[N-(2-methyl-6-nitrophenyl)-2-ethanamoylthio]-4-methyl-4H-1,2,4-triazol-5-yl} piperidine] | 72.23 ± 1.51 | 285.6 ± 1.23 | 64.28 ± 0.73 | 81.53 ± 0.96 | 129.6 ± 0.73 | 56.35 ± 1.67 | 39.65 ± 0.42 | – | 241.8 ± 0.42 | – | – | 93.81 ± 0.34
